Data taken from patent publication US7109338B2, “1,2-disubstituted 1,4-dihydro-4-oxoquinoline compounds” (priority 1999, dated 2006).
Converted amounts (≈) assume the structure as drawn.

Tests used:
[1] = test system: human rhinovirus type 1B (HRV 1B, B632); experiment: Anti-rhinovirus activity (MTT), HRV1B; format: cell-based; conditions: HeLa (Ohio strain) cells, MTT method, 33° C.; for IC50: Human rhinovirus sp., HRV1B, read-out: IC50 HRV1B
[2] = test system: echovirus type 11 (Echo 11, Gregory); experiment: In vitro anti-picornavirus activity (MTT), Echo 11; format: cell-based; conditions: HeLa-S3 cells, MTT method, 37° C.; for IC50: Enterovirus B
HRV 2 (HGP) = experiment: Anti-rhinovirus activity (MTT), HRV2; format: cell-based, human rhinovirus; conditions: HeLa (Ohio strain) cells, MTT method, 33° C.; for IC50: Human rhinovirus sp., HRV2, read-out: IC50 HRV2
HeLa (Ohio strain)cells = experiment: Cytotoxicity (MTT, without virus), HeLa(Ohio); conditions: HeLa(Ohio), no virus, incubated for 4 days
[3] = test system: Poliovirus type 1 (Polio 1, Sabin); experiment: microbe, parasite or virus in culture; format: cell-based; conditions: for IC50: Enterovirus C, HeLa S3, read-out: IC50 Polio 1
[4] = test system: coxsackievirus type B4 (CB4,JVB); experiment: In vitro anti-picornavirus activity (MTT), CB4; format: cell-based; conditions: HeLa cells, MTT method, 37° C.; for IC50: Coxsackievirus
HeLa cells = experiment: Cytotoxicity (MTT, without virus), HeLa; conditions: HeLa, no virus, incubated for 4 days
HeLa-S3 cells = experiment: Cytotoxicity (MTT, without virus), HeLa-S3; conditions: HeLa-S3, no virus, incubated for 4 days
[5] = test system: coxsackievirus type A7 (CA7); experiment: In vitro anti-picornavirus activity (MTT), CA7; format: cell-based; conditions: HeLa-S3 cells, MTT method, 37° C.; for IC50: Coxsackievirus
HRV 89 (41617-Gallo) = experiment: Anti-rhinovirus activity (MTT), HRV89; format: cell-based, human rhinovirus; conditions: HeLa (Ohio strain) cells, MTT method, 33° C.; for IC50: Human rhinovirus sp., HRV89, read-out: IC50 HRV89
HRV1A (E28) = experiment: Anti-rhinovirus activity (MTT), HRV1A; format: cell-based, human rhinovirus; conditions: for IC50 HRV 1A: HeLa (Ohio strain) cells, MTT method, 33° C.; for IC50: Human rhinovirus sp., HRV1A, HeLa, read-out: IC50 HRV 1A
HRV14 (1059) = experiment: Anti-rhinovirus activity (MTT), HRV14; format: cell-based, human rhinovirus; conditions: HeLa (Ohio strain) cells, MTT method, 33° C.; for IC50: Human rhinovirus sp., HRV14, read-out: IC50 HRV 14

SMILES	IC50 HRV1B [1]	IC50 Echo 11 [2]	IC50 HRV2 (HRV 2 (HGP))	Cytotoxicity CC50 HeLa(Ohio) (HeLa (Ohio strain)cells)	IC50 Polio 1 [3]	IC50 CB4 [4]	Cytotoxicity CC50 HeLa (HeLa cells)	Cytotoxicity CC50 HeLa-S3 (HeLa-S3 cells)	IC50 CA7 [5]	IC50 HRV89 (HRV 89 (41617-Gallo))	further results
CCOC(=O)c1c(-c2ccccc2)n(C)c2ccc(C(C)C)cc2c1=O	–	–	–	–	–	–	–	–	–	–	melting point: 164 to 165 °C
CCn1c2c(c(=O)c3cc(C(C)C)ccc31)C(N)c1ccccc1-2.Cl.Cl (centres unmarked)	–	–	–	–	–	–	–	–	–	–	melting point: 200 °C (dec.)
CCn1c2c(c(=O)c3cc(C(C)C)ccc31)C(NC(C)=O)c1ccccc1-2 (centres unmarked)	–	–	–	–	–	–	–	–	–	–	melting point: 215 °C (dec.)
CCn1c2c(c(=O)c3cc(C(C)C)ccc31)C(OC)(c1ccccc1)c1ccccc1-2 (centres unmarked)	–	–	–	–	–	–	–	–	–	–	melting point: 237 to 239 °C
CCn1c(-c2ccsc2)cc(=O)c2cc(C(C)C)ccc21 [Compound A313]	0.90 µg/mL (≈ 3.03 µM)	0.35 µg/mL (≈ 1.18 µM)	0.33 µg/mL (≈ 1.11 µM)	15 µg/mL	0.94 µg/mL (≈ 3.16 µM)	3.0 µg/mL (≈ 10.1 µM)	18 µg/mL	>20 µg/mL	3.8 µg/mL (≈ 12.8 µM)	0.96 µg/mL (≈ 3.23 µM)	–
Cc1ccc(-c2cc(=O)c3cc(C(C)C)ccc3n2C)s1 [Compound A314]	0.56 µg/mL (≈ 1.88 µM)	0.51 µg/mL (≈ 1.71 µM)	0.55 µg/mL (≈ 1.85 µM)	>10 µg/mL	0.60 µg/mL (≈ 2.02 µM)	0.82 µg/mL (≈ 2.76 µM)	7.0 µg/mL	>10 µg/mL	1.5 µg/mL (≈ 5.04 µM)	0.38 µg/mL (≈ 1.28 µM)	–
CCn1c(-c2ccc(C)s2)cc(=O)c2cc(C(C)C)ccc21 [Compound A315]	0.52 µg/mL (≈ 1.67 µM)	0.30 µg/mL (≈ 0.963 µM)	0.28 µg/mL (≈ 0.899 µM)	>10 µg/mL	0.54 µg/mL (≈ 1.73 µM)	0.63 µg/mL (≈ 2.02 µM)	7.1 µg/mL	>10 µg/mL	1.2 µg/mL (≈ 3.85 µM)	0.26 µg/mL (≈ 0.835 µM)	–
CC(C)c1ccc2c(c1)c(=O)cc(-c1ccc(Br)s1)n2C [Compound A316]	0.56 µg/mL (≈ 1.55 µM)	0.39 µg/mL (≈ 1.08 µM)	0.29 µg/mL (≈ 0.8 µM)	>5 µg/mL	0.78 µg/mL (≈ 2.15 µM)	1.1 µg/mL (≈ 3.04 µM)	>5 µg/mL	>5 µg/mL	1.2 µg/mL (≈ 3.31 µM)	0.27 µg/mL (≈ 0.745 µM)	–
CCn1c(-c2ccc(Br)s2)cc(=O)c2cc(C(C)C)ccc21 [Compound A317]	0.82 µg/mL (≈ 2.18 µM)	0.35 µg/mL (≈ 0.93 µM)	0.43 µg/mL (≈ 1.14 µM)	>5 µg/mL	0.81 µg/mL (≈ 2.15 µM)	1.1 µg/mL (≈ 2.92 µM)	>5 µg/mL	>5 µg/mL	2.6 µg/mL (≈ 6.91 µM)	0.40 µg/mL (≈ 1.06 µM)	–
Cc1c(-c2cccs2)n(C)c2ccc(OCC(C)C)c(C)c2c1=O [Compound A318]	0.45 µg/mL (≈ 1.32 µM)	0.27 µg/mL (≈ 0.791 µM)	0.38 µg/mL (≈ 1.11 µM)	>2.5 µg/mL	0.47 µg/mL (≈ 1.38 µM)	0.65 µg/mL (≈ 1.9 µM)	>2.5 µg/mL	>2.5 µg/mL	2.0 µg/mL (≈ 5.86 µM)	0.16 µg/mL (≈ 0.469 µM)	–
CCn1c(-c2nccs2)cc(=O)c2cc(C(C)C)ccc21 [Compound A319]	1.5 µg/mL (≈ 5.03 µM)	0.81 µg/mL (≈ 2.71 µM)	0.80 µg/mL (≈ 2.68 µM)	32 µg/mL	2.0 µg/mL (≈ 6.7 µM)	9.4 µg/mL (≈ 31.5 µM)	35 µg/mL	>50 µg/mL	8.9 µg/mL (≈ 29.8 µM)	2.0 µg/mL (≈ 6.7 µM)	–
Cc1ccc(-n2c(-c3ccccc3)c(C)c(=O)c3cc(C(C)C)ccc32)cc1 [Compound A325]	>2.5 µg/mL	>2.5 µg/mL	0.066 µg/mL (≈ 0.18 µM)	>2.5 µg/mL	>2.5 µg/mL	>2.5 µg/mL	>2.5 µg/mL	>2.5 µg/mL	>2.5 µg/mL	0.022 µg/mL (≈ 0.0599 µM)	–
COc1ccc(-n2c(-c3ccccc3)c(C)c(=O)c3cc(C(C)C)ccc32)cc1 [Compound A326]	>2.5 µg/mL	>2.5 µg/mL	0.48 µg/mL (≈ 1.25 µM)	>2.5 µg/mL	>2.5 µg/mL	>2.5 µg/mL	>2.5 µg/mL	>2.5 µg/mL	>2.5 µg/mL	0.067 µg/mL (≈ 0.175 µM)	–
CCc1ccc2c(c1)Cc1c-2n(C)c2ccc(C(C)C)cc2c1=O [Compound B8]	0.24 µg/mL (≈ 0.756 µM)	0.17 µg/mL (≈ 0.536 µM)	0.22 µg/mL (≈ 0.693 µM)	>1 µg/mL	0.19 µg/mL (≈ 0.599 µM)	0.60 µg/mL (≈ 1.89 µM)	>1 µg/mL	>1 µg/mL	0.70 µg/mL (≈ 2.21 µM)	0.12 µg/mL (≈ 0.378 µM)	IC50 HRV 1A (HRV1A (E28)): >1 µg/mL; IC50 HRV 14 (HRV14 (1059)): 0.40 µg/mL (≈ 1.26 µM)
COc1ccc2c(c1)Cc1c-2n(C)c2ccc(CC(C)C)cc2c1=O [Compound B11]	0.36 µg/mL (≈ 1.08 µM)	0.28 µg/mL (≈ 0.84 µM)	0.34 µg/mL (≈ 1.02 µM)	>2 µg/mL	0.45 µg/mL (≈ 1.35 µM)	1.6 µg/mL (≈ 4.8 µM)	>2 µg/mL	>2 µg/mL	>2 µg/mL	0.31 µg/mL (≈ 0.93 µM)	IC50 HRV 1A (HRV1A (E28)): 1.7 µg/mL (≈ 5.1 µM); IC50 HRV 14 (HRV14 (1059)): 0.78 µg/mL (≈ 2.34 µM)
CCn1c2c(c(=O)c3cc(C(C)C)ccc31)C(C)c1ccccc1-2 (centres unmarked) [Compound C40, 5-Ethyl-8-isopropyl-11-methyl-5,10-dihydro-11H-indeno[1,2-b]quinolin-10-one]	–	–	–	–	–	–	–	–	–	–	IC50 (HRV1A (E28)): > 3.3 µg/mL; IC50 [1]: 0.51 µg/mL (≈ 1.61 µM); IC50 [2]: 0.24 µg/mL (≈ 0.756 µM); IC50 (HRV 2 (HGP)): 0.54 µg/mL (≈ 1.7 µM); melting point: 152 to 154 °C; IC50 [3]: 0.54 µg/mL (≈ 1.7 µM); IC50 [4]: 1.7 µg/mL (≈ 5.36 µM); IC50 (HRV14 (1059)): 1.1 µg/mL (≈ 3.47 µM); IC50 [5]: > 3.3 µg/mL; IC50 (HRV 89 (41617-Gallo)): 0.56 µg/mL (≈ 1.76 µM)
CCn1c2c(c(=O)c3cc(C(C)C)ccc31)C(O)c1ccccc1-2 (centres unmarked) [Compound C43, 5-Ethyl-8-isopropyl-11-hydroxy-5,10-dihydro-11H-indeno[1,2-b]quinolin-10-one]	–	–	–	–	–	–	–	–	–	–	IC50 (HRV1A (E28)): > 5 µg/mL; IC50 [1]: 1.5 µg/mL (≈ 4.7 µM); IC50 [2]: 0.54 µg/mL (≈ 1.69 µM); IC50 (HRV 2 (HGP)): 0.67 µg/mL (≈ 2.1 µM); IC50 [3]: 1.5 µg/mL (≈ 4.7 µM); IC50 [4]: 2.9 µg/mL (≈ 9.08 µM); IC50 (HRV14 (1059)): 2.5 µg/mL (≈ 7.83 µM); IC50 [5]: > 5 µg/mL; IC50 (HRV 89 (41617-Gallo)): 0.86 µg/mL (≈ 2.69 µM)
CCn1c2c(c(=O)c3cc(C(C)C)ccc31)C(=NOC)c1ccccc1-2 [Compound C49, 5-Ethyl-8-isoproypl-11-methoxyimino-5,10-dihydro-11H-indeno[1,2-b]quinolin-10-one]	1.9 µg/mL (≈ 5.48 µM)	0.26 µg/mL (≈ 0.751 µM)	1.7 µg/mL (≈ 4.91 µM)	–	0.52 µg/mL (≈ 1.5 µM)	2.3 µg/mL (≈ 6.64 µM)	–	–	9.2 µg/mL (≈ 26.6 µM)	2.1 µg/mL (≈ 6.06 µM)	IC50 HRV 1A (HRV1A (E28)): >10 µg/mL; IC50 HRV 14 (HRV14 (1059)): 5.5 µg/mL (≈ 15.9 µM)
